Experimental data as given in patent US20260022143A1, “Cyclic Peptide Inhibitors of IL-23” (JANSSEN PHARMACEUTICA NV, priority 2022, published 2026).
Starred links: 1 amine or outer side, 2 acyl side, 3 side chain; linkers in the order of their positions; H or OH if unused. Positions of bridges follow the written chain, without caps; N, C: chain ends. Non-standard residues stand in square brackets, D forms with d. Residues, ends and D or L forms follow the SMILES beside them. *: point of attachment. Me3N+(CH2)2O(CH2)2O(CH2)2CO = C[N+](C)(C)CCOCCOCCC(=O)*; NH(CH2CH2O)2CH2CH2NMe3+ = C[N+](C)(C)CCOCCOCCN*; Trp(7-Me) = Cc1cccc2c(C[C@H](N)C(=O)O)c[nH]c12; d(hLys(Me3)) = C[N+](C)(C)CCCCC[C@@H](N)C(=O)O; Abu(4-yl) = O=C([C@H](CC[*:3])N[*:1])[*:2]; 3Pal(5-Me) = Cc1cncc(C[C@H](N)C(=O)O)c1; Dab(NMeAc) = CC(=O)N(C)CC[C@H](N)C(=O)O; X1 = CN(CC[C@H](N[*:1])C(=O)[*:2])[*:3]; 2Nal = N[C@@H](Cc1ccc2ccccc2c1)C(=O)O; AEF = NCCOc1ccc(C[C@H](N)C(=O)O)cc1; 3Pal = N[C@@H](Cc1cccnc1)C(=O)O; Ethyl(2-guanidino) = N=C(N)NCC*; Lys(Me) = CNCCCC[C@H](N)C(=O)O; Pen = CC(C)(S)[C@H](N)C(=O)O; αMeC = C[C@](N)(CS)C(=O)O; Thp = NC1(C(=O)O)CCOCC1; X3 = C[N+](C)(C)CCCCC*; Sar = CNCC(=O)O

What was measured:
[1] = Exposed Polar Surface Area (EPSA); assay type: physicochemical; details: SFC on Chirex 3014 column; sample 1 mM DMSO stock; read-out: EPSA
Outline: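 SFC retention on a Chirex 3014 (S-valine/(R)-1-(α-naphthyl)ethylamine) column at 35 °C, 4 mL/min, 14 MPa outlet, 5–60% methanol/20 mM ammonium formate gradient in CO2. Retention times converted to EPSA (Å²) via linear calibration with 8 standards; samples from 1 mM DMSO stock, run in duplicate.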

[2] = molecular target: T1, IL-23R (Homo sapiens, UniProt Q5VWK5); assay: IL23R Reporter Assay; assay type: cell-based; details: HEK293 cells containing IL-23R, IL-12RP1 and STAT-inducible firefly luciferase reporter; 10 ng/mL IL-23 (EC90); 5 h at 37° C.; read-out: IL23R Reporter Assay
T1 construct: host or cells: HEK293
T1 sequence (Q5VWK5 24-629): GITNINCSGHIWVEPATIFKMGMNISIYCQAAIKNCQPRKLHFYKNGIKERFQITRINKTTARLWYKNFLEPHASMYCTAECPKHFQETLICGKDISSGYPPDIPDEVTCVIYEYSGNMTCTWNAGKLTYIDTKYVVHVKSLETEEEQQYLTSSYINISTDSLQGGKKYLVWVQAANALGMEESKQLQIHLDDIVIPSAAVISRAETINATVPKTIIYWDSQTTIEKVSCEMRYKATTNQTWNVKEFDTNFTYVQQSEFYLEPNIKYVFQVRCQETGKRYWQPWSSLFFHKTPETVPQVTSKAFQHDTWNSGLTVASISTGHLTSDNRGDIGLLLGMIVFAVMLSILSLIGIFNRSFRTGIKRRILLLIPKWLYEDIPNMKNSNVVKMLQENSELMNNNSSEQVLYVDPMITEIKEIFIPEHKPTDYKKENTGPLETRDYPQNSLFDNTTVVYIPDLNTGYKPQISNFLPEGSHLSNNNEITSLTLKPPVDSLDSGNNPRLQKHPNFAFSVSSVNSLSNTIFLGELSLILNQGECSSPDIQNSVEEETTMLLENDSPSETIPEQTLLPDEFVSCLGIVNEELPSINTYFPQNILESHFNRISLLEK

| EPSA [1] | IC50 [2] | Structure (SMILES) |
| --- | --- | --- |
| 237 A^2 | 50 nM | CC(=O)NCCCC[C@@H]1NC(=O)[C@H](Cc2c[nH]c3ccccc23)NC(=O)[C@H]([C@@H](C)O)NC(=O)[C@H](CC(N)=O)NC(=O)[C@@H](NC(=O)[C@H](CCCNC(=N)N)NC(=O)CCOCCOCC[N+](C)(C)C)CCSC[C@@](C)(C(=O)N[C@@H](Cc2ccc(OCCCCC[N+](C)(C)C)cc2)C(=O)N[C@@H](Cc2ccc3ccccc3c2)C(=O)NC2(C(=O)N[C@@H](CCC(=O)O)C(=O)N[C@@H](CC(N)=O)C(=O)N[C@@H](Cc3cccnc3)C(=O)N(C)CC(N)=O)CCOCC2)NC1=O [compound 516, cPEG3aCO-r-Abu(1)-N-T-W-K(Ac)-aMeC(1)-TMAPF-2Nal-THP-E-N-3Pya-Sar-CONH2] ({Me3N+(CH2)2O(CH2)2O(CH2)2CO}-R[Abu(4-yl)]NTWK(Ac)[αMeC]Y(X3)[2Nal][Thp]EN[3Pal][Sar]-NH2; thioether 2-7) |
| 142 A^2 | 1.4 nM | CC(=O)N(C)CCCC[C@@H]1NC(=O)[C@H](Cc2c[nH]c3c(C)cccc23)NC(=O)[C@H]([C@@H](C)O)NC(=O)[C@H](CC(=O)N(C)C)NC(=O)[C@@H](NC(=O)CCOCCOCC[N+](C)(C)C)C(C)(C)SSC(C)(C)[C@@H](C(=O)N[C@@H](Cc2ccc(OCCCCC[N+](C)(C)C)cc2)C(=O)N[C@@H](Cc2ccc3ccccc3c2)C(=O)NC2(C(=O)N[C@@H](CCCCN(C)C(C)=O)C(=O)N[C@@H](CC(N)=O)C(=O)N[C@@H](Cc3cccnc3)C(=O)N(C)CC(=O)NCCOCCOCC[N+](C)(C)C)CCOCC2)NC1=O [compound 220, cPEG3aCO-Pen(3)-N(N(Me)2)-T-7MeW-K(NMeAc)-Pen(3)-TMAPF-2Nal-THP-K(NMeAc)-N-3Pya-Sar-CO(NHPEG3a)] ({Me3N+(CH2)2O(CH2)2O(CH2)2CO}-[Pen]D(NMe2)T[Trp(7-Me)][Lys(Me)](Ac)[Pen]Y(X3)[2Nal][Thp][Lys(Me)](Ac)N[3Pal][Sar]-{NH(CH2CH2O)2CH2CH2NMe3+}; disulfide 1-6) |
| 153 A^2 | 0.73 nM | CC(=O)N(C)CCCC[C@@H]1NC(=O)[C@H](Cc2c[nH]c3c(C)cccc23)NC(=O)[C@H]([C@@H](C)O)NC(=O)[C@H](CC(=O)N(C)C)NC(=O)[C@@H](NC(=O)CCOCCOCC[N+](C)(C)C)C(C)(C)SSC(C)(C)[C@@H](C(=O)N[C@@H](Cc2ccc(OCCCCC[N+](C)(C)C)cc2)C(=O)N[C@@H](Cc2ccc3ccccc3c2)C(=O)NC2(C(=O)N[C@@H](CCN(C)C(C)=O)C(=O)N[C@@H](CC(N)=O)C(=O)N[C@@H](Cc3cccnc3)C(=O)N(C)CC(=O)N(C)C)CCOCC2)NC1=O [compound 301, cPEG3aCO-Pen(3)-N(N(Me)2)-T-7MeW-K(NMeAC)-Pen(3)-TMAPF-2Nal-THP-Dab(NMeAc)-N-3Pya-Sar-CON(Me)2] ({Me3N+(CH2)2O(CH2)2O(CH2)2CO}-[Pen]D(NMe2)T[Trp(7-Me)][Lys(Me)](Ac)[Pen]Y(X3)[2Nal][Thp][Dab(NMeAc)]N[3Pal][Sar]-NMe2; disulfide 1-6) |
| 168 A^2 | 3.2 nM | CC(=O)N[C@H](CCCCC[N+](C)(C)C)C(=O)N[C@@H]1C(=O)N[C@@H](CC(=O)N(C)C)C(=O)N[C@@H]([C@@H](C)O)C(=O)N[C@@H](Cc2c[nH]c3c(C)cccc23)C(=O)N[C@@H](CCCCN(C)C(C)=O)C(=O)N[C@H](C(=O)N[C@@H](Cc2ccc(OCCN)cc2)C(=O)N[C@@H](Cc2ccc3ccccc3c2)C(=O)NC2(C(=O)N[C@@H](CCC(=O)O)C(=O)N[C@@H](CC(N)=O)C(=O)N[C@@H](Cc3cccnc3)C(=O)N(C)CC(=O)N(C)C)CCOCC2)C(C)(C)SSC1(C)C [compound 163, MeCO-hk(Me)3-Pen(3)-N(N(Me)2)-T-7MeW-K(NMeAc)-Pen(3)-AEF-2Nal-THP-E-N-3Pya-Sar-CON(Me)2] (Ac-[d(hLys(Me3))][Pen]D(NMe2)T[Trp(7-Me)][Lys(Me)](Ac)[Pen][AEF][2Nal][Thp]EN[3Pal][Sar]-NMe2; disulfide 2-7 (inferred)) |
| 167 A^2 | 2.6 nM | CC(=O)NCCCC[C@@H]1NC(=O)[C@H](Cc2c[nH]c3c(C)cccc23)NC(=O)[C@H]([C@@H](C)O)NC(=O)[C@H](CC(N)=O)NC(=O)[C@@H](NC(C)=O)C(C)(C)SSC(C)(C)[C@@H](C(=O)N[C@@H](Cc2ccc(OCCCCC[N+](C)(C)C)cc2)C(=O)N[C@@H](Cc2ccc3ccccc3c2)C(=O)NC2(C(=O)N[C@@H](CCC(=O)O)C(=O)N[C@@H](CC(N)=O)C(=O)N[C@@H](Cc3cccnc3)C(=O)N(C)CC(N)=O)CCOCC2)NC1=O [compound 430, MeCO-Pen(3)-N-T-7MeW-K(Ac)-Pen(3)-TMAPF-2Nal-THP-E-N-3Pya-Sar-CONH2] (Ac-[Pen]NT[Trp(7-Me)]K(Ac)[Pen]Y(X3)[2Nal][Thp]EN[3Pal][Sar]-NH2; disulfide 1-6 (inferred)) |
| 202 A^2 | 12 nM | CC(=O)NCCCC[C@@H]1NC(=O)[C@H](Cc2c[nH]c3c(C)cccc23)NC(=O)[C@H]([C@@H](C)O)NC(=O)[C@H](CC(N)=O)NC(=O)[C@@H](NC(=O)[C@@H](CCCNC(=N)N)NC(=O)CCOCCOCC[N+](C)(C)C)C(C)(C)SSC(C)(C)[C@@H](C(=O)N[C@@H](Cc2ccc(OCCN)cc2)C(=O)N[C@@H](Cc2ccc3ccccc3c2)C(=O)NC2(C(=O)N[C@@H](CCC(=O)O)C(=O)N[C@@H](CC(N)=O)C(=O)N[C@@H](Cc3cncc(C)c3)C(=O)N(C)CC(N)=O)CCOCC2)NC1=O [compound 473, cPEG3aCO-r-Pen(3)-N-T-7MeW-K(Ac)-Pen(3)-AEF-2Nal-THP-E-N-5MePyridinAla-Sar-CONH2] ({Me3N+(CH2)2O(CH2)2O(CH2)2CO}-[dR][Pen]NT[Trp(7-Me)]K(Ac)[Pen][AEF][2Nal][Thp]EN[3Pal(5-Me)][Sar]-NH2; disulfide 2-7) |
| 140 A^2 | 6.3 nM | CC(=O)N[C@@H]1C(=O)N[C@@H](CC(=O)N(C)C)C(=O)N[C@@H]([C@@H](C)O)C(=O)N[C@@H](Cc2c[nH]c3c(C)cccc23)C(=O)N[C@@H](CCN(C)C(=O)CCOCCOCC[N+](C)(C)C)C(=O)N[C@H](C(=O)N[C@@H](Cc2ccc(OCCN)cc2)C(=O)N[C@@H](Cc2ccc3ccccc3c2)C(=O)NC2(C(=O)N[C@@H](CCN(C)C(=O)CCOCCOCC[N+](C)(C)C)C(=O)N[C@@H](CC(N)=O)C(=O)N[C@@H](Cc3cccnc3)C(=O)N(C)CC(=O)N(C)C)CCOCC2)C(C)(C)SSC1(C)C [compound 175, MeCO-Pen(3)-N(N(Me)2)-T-7MeW-Dab(NMecPEG3a)-Pen(3)-AEF-2Nal-THP-Dab(NMecPEG3a)-N-3Pya-Sar-CON(Me)2] (Ac-[Pen]D(NMe2)T[Trp(7-Me)][X1](Me3N+(CH2)2O(CH2)2O(CH2)2CO)[Pen][AEF][2Nal][Thp][X1](Me3N+(CH2)2O(CH2)2O(CH2)2CO)N[3Pal][Sar]-NMe2; disulfide 1-6 (inferred)) |
| 161 A^2 | 6 nM | CC(=O)N(C)CCCC[C@@H]1NC(=O)[C@H](Cc2c[nH]c3c(C)cccc23)NC(=O)[C@H]([C@@H](C)O)NC(=O)[C@H](C)NC(=O)[C@@H](NC(=O)CCOCCOCC[N+](C)(C)C)C(C)(C)SSC(C)(C)[C@@H](C(=O)N[C@@H](Cc2ccc(OCCCCC[N+](C)(C)C)cc2)C(=O)N[C@@H](Cc2ccc3ccccc3c2)C(=O)NC2(C(=O)N[C@@H](CCCCN(C)C(C)=O)C(=O)N[C@@H](CC(N)=O)C(=O)N[C@@H](Cc3cccnc3)C(=O)N(C)CC(=O)N(C)C)CCOCC2)NC1=O [compound 496, cPEG3aCO-Pen(3)-a-T-7MeW-K(NMeAc)-Pen(3)-TMAPF-2Nal-THP-K(NMeAc)-N-3Pya-Sar-CON(Me)2] ({Me3N+(CH2)2O(CH2)2O(CH2)2CO}-[Pen]AT[Trp(7-Me)][Lys(Me)](Ac)[Pen]Y(X3)[2Nal][Thp][Lys(Me)](Ac)N[3Pal][Sar]-NMe2; disulfide 1-6) |
| 174 A^2 | 0.69 nM | CC(=O)NCCCC[C@@H]1NC(=O)[C@H](Cc2c[nH]c3c(C)cccc23)NC(=O)[C@H]([C@@H](C)O)NC(=O)[C@H](CC(N)=O)NC(=O)[C@@H](NC(=O)CCOCCOCC[N+](C)(C)C)C(C)(C)SSC(C)(C)[C@@H](C(=O)N[C@@H](Cc2ccc(OCCNC(=N)N)cc2)C(=O)N[C@@H](Cc2ccc3ccccc3c2)C(=O)NC2(C(=O)N[C@@H](CCCCNC(C)=O)C(=O)N[C@@H](CC(N)=O)C(=O)N[C@@H](Cc3cccnc3)C(=O)N(C)CC(N)=O)CCOCC2)NC1=O [compound 471, cPEG3aCO-Pen(3)-N-T-7MeW-K(Ac)-Pen(3)-AEF(G)-2Nal-THP-K(Ac)-N-3Pya-Sar-CONH2] ({Me3N+(CH2)2O(CH2)2O(CH2)2CO}-[Pen]NT[Trp(7-Me)]K(Ac)[Pen]Y(Ethyl(2-guanidino))[2Nal][Thp]K(Ac)N[3Pal][Sar]-NH2; disulfide 1-6) |
